Read-outs that look alike come from different tables or passages of the source.
Experiments:
RBL-2H3 cells = assay: Fluorescence-based assay of store-operated calcium entry in RBL-2H3 cells (FLIPR, thapsigargin); assay type: cell-based, rat; settings: Fluo-4, Upslope 0-7 sec, read-out: FLIPR_CRAC: 9 pt CRC - Fluo4_TG-D: RBL-2H3: IC50: Upslope 0-7 sec
Description: B. Fluorescence-Based Assay of Store-Operated Calcium Entry in RBL-2H3 Cells.
RBL-2H3 cells are obtained from ATCC and maintained in complete medium with 10% FBS at 37° C./6% CO2.
The day prior to performing the assay, RBL-2H3 cells are plated in 50 μl of complete medium in a 384 well plate. Cells are grown at 37° C./6% CO2 overnight and grow to 50-60% confluence by the next day. On the assay day, 1.5 μM Fluo-4-AM dye (Invitrogen) in complete medium is added and incubated for 1 hour at RT. Cells are washed twice in Ca^2+-free HBSS buffer and 35 μl Ca^2+-free HBSS buffer is added to each well. 10 μl of a test compound prepared in a Ca^2+-free HBSS solution at 4.5× of the desired concentration is added to a well and incubated for 5 minutes at RT. 10 μl of thapsigargin prepared in a Ca^2+-free HBSS solution at 5.5× of the desired concentration (5.5 uM) is added to each well and incubated for an additional 25 minutes. The initial baseline fluorescence signal is measured with a FLIPR^384 (Molecular Devices) plate reader. 5 μl of 12× calcium in HBSS (12 mM) is added and changes in cellular fluorescence are measured with the FLIPR^384 plate reader. In each well, the change in the fluorescent signal as a function of time due to calcium entry into the cell is determined by calculating the difference between the fluorescent signal measured 7 seconds after calcium addition and the initial baseline fluorescence signal at time zero (t=0). This parameter is designated Upslope. The IC50 value is calculated as the concentration at which 50% of the Upslope is inhibited.

[1] = system: secreted IL-2 in Jurkat T cells; assay: In vitro assay of cytokine (IL-2) release from T cells; assay type: cell-based; settings: Homo sapiens; Jurkat E6-1 cells; PHA/TPA stimulation 20 hours; IL-2 ELISA
Description: In Vitro Assay of Cytokine Release from T Cells
Jurkat E6-1 cells are obtained from ATCC and maintained in complete medium with 10% FBS at 37° C./6% CO2.
The day prior to performing the assay, Jurkat T cells are plated in 90 μL of HBSS Buffer with 1.8 mM CaCl2 and 1.75% fetal bovine serum (FBS) in a 96 well plate at a density of 1.5×10^5 cells/well for 3 hours. 10 μl of 10× test compound prepared in HBSS is added and incubated for 10 minutes at 37° C./6% CO2. Cells are stimulated by the addition of 10 μl of 11×PHA/TPA (27.5 μg/mL PHA/880 nM TPA) and incubated at 37° C./6% CO2 for 20 hours. On the following day, the supernatants are collected and assayed for IL-2 levels by ELISA according to the manufacturer's protocols. The IC50 value is calculated as the concentration at which 50% of secreted IL-2 in vehicle treated cells is inhibited.

[2] = biological target: T1, recombinant human STIM1 and Orai1 (Homo sapiens, UniProt Q96D31); assay: Fluorescence-based assay of store-operated calcium entry in Orai1/STIM1 stable cells (FLIPR); assay type: cell-based; settings: for IC50: HEK-293 cells stably expressing human Orai1/STIM1, Fluo-4, Peak-Basal signal, read-out: FLIPR_CRAC: 9 point CRC: O1S1_JR251: IC50: Peak_over_Basal; for FLIPR_CRAC: 9 point CRC: O1S1_JR251: efficacy: printed in the IC50 column in place of a class symbol
T1 construct: c-myc (C); expressed in transfected cells; host or cells: HEK-293 cells stably expressing human STIM1 and human Orai1
T1 sequence (Q96D31 whole entry): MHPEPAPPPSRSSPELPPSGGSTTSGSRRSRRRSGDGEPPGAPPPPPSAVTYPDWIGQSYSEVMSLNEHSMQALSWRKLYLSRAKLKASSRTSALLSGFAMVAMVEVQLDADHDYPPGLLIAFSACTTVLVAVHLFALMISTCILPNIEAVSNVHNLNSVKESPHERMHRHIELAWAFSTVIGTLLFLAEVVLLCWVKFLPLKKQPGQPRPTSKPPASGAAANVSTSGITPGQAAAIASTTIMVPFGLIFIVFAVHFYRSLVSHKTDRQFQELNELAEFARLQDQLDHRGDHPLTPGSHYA
Description: A. Fluorescence-Based Assay of Store-Operated Calcium Entry in Orai1/Stim1 Stable Cells.
Cells stably expressing recombinant human STIM1 and Orai1 are generated by transfecting a human Orai1 expression plasmid (pcDNA3.1-Orai1-cmyc) into HEK-293 cells stably overexpressing human STIM1 (Roos et al. 2005 JCB 169(3): 435-445). Colonies of cells stably expressing both STIM1 and Orai1 proteins are selected and then subcloned by limiting dilution. Cells were cultured at 37° C./6% CO2 in complete medium with 10% FBS and appropriate selection markers.
The day prior to performing the assay Orai1/STIM1 stable cells are plated in 50 μL of complete medium at 90-95% confluence in a 384 well plate. Cells are grown at 37° C./6% CO2 overnight. On the day of the assay, 1.5 μM fluo-4-AM (Invitrogen) in complete medium is added to the cells, which are then incubated for 1 hour at RT. Cells are washed once in Ca^2+-free HBSS (Hank's buffered saline solution) and 35 μl of Ca^2+-free HBSS is added to each well. Test compounds are added to wells in a 10 μL Ca^2+-free HBSS solution, prepared at 4.5× the desired final concentration, and incubated for 30 minutes at RT. The initial baseline fluorescence signal is then measured with a FLIPR^384 (Molecular Devices) plate reader. Calcium entry is initiated by adding 5 μl of 10×CaCl2 (10 mM) in HBSS, and changes in cellular fluorescence are measured with the FLIPR^384 plate reader. In each well, the magnitude of the fluorescence signal as a result of calcium entry into the cell is determined by calculating the difference between the peak fluorescence signal measured after calcium addition and the initial baseline fluorescence signal (designated Peak-Basal). IC50 values are typically calculated as the concentration that inhibited 50% of the Peak-Basal signal.

| Compound | IC50 (RBL-2H3 cells; Rattus norvegicus) | IC50 [1] | IC50 [2] | IC50 (RBL-2H3 cells) | FLIPR_CRAC: 9 point CRC: O1S1_JR251: efficacy [2] |
| --- | --- | --- | --- | --- | --- |
| CCn1nc(C(F)(F)F)cc1-c1cnc(NC(=O)c2ccccc2Cl)s1 [Example 24, (2-chlorophenyl)-N-{5-[1-ethyl-3-(trifluoromethyl)pyrazol-5-yl](1,3-thiazol-2-yl)}carboxamide] | < 600 nM | < 50 nM | 600 to 1200 nM |  |  |
| Cn1nc(-c2ccccc2)cc1-c1ccc(C(=O)Nc2ncccc2F)s1 [Example 45] | 600 to 1200 nM |  | 600 to 1200 nM |  |  |
| Cc1cc2c(cc1-c1ccc(NC(=O)c3ccccc3F)s1)OC(F)(F)O2 [Example 79, N-[5-(2,2-difluoro-6-methylbenzo[d]1,3-dioxolen-5-yl)(2-thienyl)](2-fluorophenyl)carboxamide] | 600 to 1200 nM |  | > 1200 nM |  |  |
| Cn1nc(-c2nccs2)cc1-c1ccc(C(=O)Nc2c(F)cncc2F)s1 [Example 50] | < 600 nM |  | 600 to 1200 nM |  |  |
| Cc1cc2cnn(C)c2cc1-c1ccc(C(=O)Nc2ccccc2F)s1 [Example 12] | < 600 nM |  | 600 to 1200 nM |  |  |
| Cc1cc2c(cc1-c1ccc(NC(=O)c3c(F)cccc3F)s1)OC(F)(F)O2 [Example 80, N-[5-(2,2-difluoro-6-methylbenzo[d]1,3-dioxolen-5-yl)(2-thienyl)](2,6-difluorophenyl)carboxamide] | < 600 nM |  | > 1200 nM |  |  |
| Cn1nc(-c2nccs2)cc1-c1ccc(C(=O)Nc2c(F)cccc2F)s1 [Example 49, (2,6-difluorophenyl)[5-(1-methyl-3-(1,3-thiazol-2-yl)pyrazol-5-yl](2-thienyl)]carboxamide] | < 600 nM |  | < 600 nM |  |  |
| Cn1nc(C(F)(F)F)cc1-c1sc(C(=O)Nc2c(F)cccc2F)cc1N [Example 30, {4-Amino-5-[1-methyl-3-(trifluoromethyl)pyrazol-5-yl](2-thienyl)}-N-(2,6-difluorophenyl)carboxamide] |  |  | > 1200 nM |  |  |
| Cc1cccnc1C(=O)Nc1ncc(-c2cc(C(F)(F)F)nn2C)s1 [Example 26, (3-methyl(2-pyridyl))-N-{5-[1-methyl-3-(trifluoromethyl)pyrazol-5-yl](1,3-thiazol-2-yl)}carboxamide] |  |  |  | < 600 nM | <50% efficacy |
| O=C(Nc1ccccc1Cl)c1ccc(-c2cc3scnc3cc2Cl)s1 [Example 8, N-(2-chlorophenyl)[5-(5-chlorobenzothiazol-6-yl)(2-thienyl)]carboxamide] | < 600 nM |  | 600 to 1200 nM |  |  |
| Cn1nc(C(F)(F)F)cc1-c1ncc(NC(=O)c2ccccc2Cl)s1 [Example 29, (2-chlorophenyl)-N-{2-[1-methyl-3-(trifluoromethyl)pyrazol-5-yl](1,3-thiazol-5-yl)}carboxamide] | > 1200 nM |  | > 1200 nM |  |  |
| Cn1nc(C(F)(F)F)cc1-c1ccc(NC(=O)c2c(F)cncc2F)s1 [Example 77, (3,5-difluoro(4-pyridyl))-N-{5-[1-methyl-3-(trifluoromethyl)pyrazol-5-yl](2-thienyl)}carboxamide] | < 600 nM |  | 600 to 1200 nM |  |  |
| Cn1c(-c2cnc(NC(=O)c3ccccc3Cl)s2)cc2ccccc21 [Example 22, (2-chlorophenyl)-N-[5-(1-methylindol-2-yl)(1,3-thiazol-2-yl)]carboxamide] | < 600 nM |  | > 1200 nM |  |  |
| Cc1cc2cn(C)nc2cc1-c1ccc(C(=O)Nc2c(F)cccc2F)s1 [Example 15] |  |  | 600 to 1200 nM |  |  |
| CC(C)n1nc(C(F)(F)F)cc1-c1cnc(NC(=O)c2ccccc2Cl)s1 [Example 25, (2-chlorophenyl)-N-{5-[1-(methylethyl)-3-(trifluoromethyl)pyrazol-5-yl](1,3-thiazol-2-yl)}carboxamide] | 600 to 1200 nM |  | > 1200 nM |  |  |
| Cn1nc(C(F)(F)F)cc1-c1cnc(NC(=O)c2ccncc2F)s1 [Example 76] | < 600 nM |  | < 600 nM |  |  |
| Cn1nc(-c2nccs2)cc1-c1ccc(C(=O)Nc2ncccc2F)s1 [Example 52] | 600 to 1200 nM |  | 600 to 1200 nM |  |  |
| Cn1nc(-c2cccs2)cc1-c1ccc(C(=O)Nc2c(F)cccc2F)s1 [Example 63, N-(2,6-difluorophenyl)[5-(1-methyl-3-(2-thienyl)pyrazol-5-yl](2-thienyl)]carboxamide] |  |  | > 1200 nM |  |  |
| Cc1nc(-c2cc(-c3ccc(C(=O)Nc4c(F)cccc4F)s3)n(C)n2)no1 [Example 16, N-(2,6-difluorophenyl){5-[1-methyl-3-(5-methyl(1,2,4-oxadiazol-3-yl))pyrazol-5-yl](2-thienyl)}carboxamide] |  |  | 600 to 1200 nM |  |  |
| Cn1nc(C(F)(F)F)cc1-c1ccc(NC(=O)c2ccncc2F)s1 [Example 75, (3-fluoro(4-pyridyl))-N-{5-[1-methyl-3-(trifluoromethyl)pyrazol-5-yl](2-thienyl)}carboxamide] | > 1200 nM |  |  |  | <50% efficacy |
| Cn1nc(-c2cccs2)cc1-c1ccc(C(=O)Nc2ccccc2Cl)s1 [Example 65] |  |  | > 1200 nM |  |  |
| Cn1nc(C(F)(F)F)cc1-c1cnc(NC(=O)c2c(F)cncc2F)s1 [Example 78] | 600 to 1200 nM |  | > 1200 nM |  |  |
| Cc1nc(-c2cc(-c3ccc(C(=O)Nc4ccccc4F)s3)n(C)n2)no1 [Example 17, N-(2-fluorophenyl){5-[1-methyl-3-(5-methyl(1,2,4-oxadiazol-3-yl))pyrazol-5-yl](2-thienyl)}carboxamide] | < 600 nM |  | 600 to 1200 nM |  |  |
| Cn1nc(C(F)(F)F)cc1-c1cnc(NC(=O)c2ccc(Cl)cc2)s1 [Example 73] | 600 to 1200 nM |  | 600 to 1200 nM |  |  |
| Cc1cc2cn(C)nc2cc1-c1ccc(C(=O)Nc2ccccc2Cl)s1 [Example 14] | < 600 nM |  | 600 to 1200 nM |  |  |
| Cc1cc2c(cc1-c1cnc(NC(=O)c3c(F)cncc3F)s1)OC(F)(F)O2 [Example 81, (3,5-difluoro(4-pyridyl))-N-[5-(2,2-difluoro-6-methylbenzo[d]1,3-dioxolen-5-yl)(1,3-thiazol-2-yl)]carboxamide] | < 600 nM |  | > 1200 nM |  |  |
| Cn1nc(C(F)(F)F)cc1-c1ccc(NC(=O)c2ccccc2F)s1 [Example 71, (2-fluorophenyl)-N-{5-[1-methyl-3-(trifluoromethyl)pyrazol-5-yl](2-thienyl)}carboxamide] | < 600 nM |  | < 600 nM |  |  |
| (2,6-difluorophenyl-N-{5-[2-(fluorophenyl)-1-methylpyrazol-5-yl](1,3-thiazol-2-yl)]carboxamide [Example 69] |  |  | 600 to 1200 nM | < 600 nM |  |
| Cc1nc(-c2cc(-c3cnc(NC(=O)c4ccccc4Cl)s3)n(C)n2)no1 [Example 18, (2-chlorophenyl)-N-{5-[1-methyl-3-(5-methyl(1,2,4,-oxadiazol-3-yl))pyrazol-5-yl](1,3-thiazol-2-yl)}carboxamide] |  |  | > 1200 nM |  |  |

— patent publication US9079891B2, “Compounds that modulate intracellular calcium” (CALCIMEDICA, INC., priority 2010, dated 2015)
